Experimental data as given in publication PMC6263107 (Journal of Enzyme Inhibition and Medicinal Chemistry, 2018).
Values joined by “and” are separate entries in the source; they are usually repeats but may differ in a detail not shown here. Equal entries are not always repeated.

Experiments:
[1] = Oxygen radical absorbance capacity assay (ORAC-FL); details: for ORAC: ORAC-FL, Trolox equivalents
Method: The antioxidant activity of KTs was determined using the ORAC-FL method described by Dávalos et al.[30] using fluorescein as a fluorescent probe with minor modification. Briefly, fluorescein and antioxidant were incubated in a black 96-well microplate (Nunc) for 15 min at 37 °C. The 2,2’-azobis(amidinopropane) dihydrochloride (AAPH) was then added quickly using the built-in injector of Varioskan Flash plate reader (Thermo Scientific).
Results are expressed in the Trolox equivalents (TE) unit in relation to radical scavenging properties of Trolox.

[2] = system: SH-SY5Y cells; assay: Neuroprotection against oligomycin/rotenone-induced cell death (MTT); format: cell-based, human; details: O 10 µM / R 30 µM
Method: (§1) SH-SY5Y cell culture and treatment with compounds 2b–d and 2f. The cultures of human SH-SY5Y neuroblastoma cells kept under a CO2/air (5%/95%) humidified atmosphere at 37 °C for 24 h were treated with 100 µl of the test compounds or DMSO (0.1%) in DMEM/F12 (1:1) medium supplemented with 1% fetal bovine serum, 1X non-essential amino acids, 100 units/ml penicillin and 10 mg/ml streptomycin. Treatment medium was renewed every day for up to 48 h of treatment. MTT assay was then performed.
(§2) SH-SY5Y cells were seeded in 96-well culture plates at a density of 8 × 10^4 cells per well in DMEM/F12 (1:1) medium supplemented with 10% fetal bovine serum, 1X non-essential amino acids, 100 units/mL penicillin and 10 mg/mL streptomycin (Dutscher, France). After 24 h of incubation, the cultures were treated with 100 µl of the test compounds or DMSO (0.1%) in the same medium. Following 24 h, the cells were co-incubated with oligomycin A (10 µM)/rotenone (30 µM) (Sigma, France) or Aβ 1–40 (30 µM) with or without the tested compounds 2b–d and 2f at nontoxic concentrations against cells for an additional period of 24 h. MTT assay was then performed to determine the % of cell viability.
(§3) The ability to prevent the human neuroblastoma cell line SH-SY5Y cell death induced by toxic insults such as Αβ 1–40, implicated in ROS production and apoptosis-related signalling pathways, and oligomycin/rotenone (O/R)[39], was then assayed to determine the neuroprotective capacity of the four less hepatotoxic KTs 2b–d and 2f at nontoxic concentration against SH-SY5Y 3 and 10 µM, using melatonin and KA as reference molecules. For the evaluation of the neuroprotective effect, the cytotoxicity of O/R (10 µM/30 µM) on SH-SY5Y cell viability was determined as well as the toxicity of the selected KTs 2b–d and 2f at.

[3] = system: SH-SY5Y cells; assay: Neuroprotection against Aβ1–40 peptide-induced cell death (MTT); format: cell-based, human; details: for Aβ1–40 (%) neuroprotection: Aβ 1–40 30 µM
Method: as §1, §2, §3

[4] = system: SH-SY5Y cells; assay: Neuroprotection against oligomycin/rotenone-induced cell death (MTT); format: cell-based, human; details: compound 1 µM; O 10 µM / R 30 µM
[5] = system: SH-SY5Y cells; assay: Neuroprotection against Aβ1–40 peptide-induced cell death (MTT); format: cell-based, human; details: compound 1 µM; Aβ 1–40 30 µM
[6] = in vitro; format: cell-based; details: human, HepG2 cells, percent of cell viability vs DMSO-treated control, read-out: HepG2 cell viability
Method: (§4) The culture medium was refreshed after 24 h of incubation and 100 µl of six different concentrations (1–1000 µM) of test compounds or DMSO (0.1%) were then added. The cell viability was monitored by colourimetric assay with 3-[4,5-dimethylthiazol-2-yl]-2,5-diphenyl-tetrazolium bromide (MTT).
(§5) In this sense, all new KTs were submitted to the in vitro cell viability test (MTT assay) using human hepatocellular carcinoma cell line (HepG2)[26], as the most accepted probe to evaluate hepatotoxic effects. For this experiment, six different concentrations from 1 to 1000 µM were used.

[7] = system: HepG2 cells; assay: in vitro; format: cell-based; details: at 1000 µM
Method: as §4, §5

[8] = biological target: EeAChE (Electrophorus electricus, UniProt O42275); assay: biochemical
Sequence of EeAChE (O42275 24-633): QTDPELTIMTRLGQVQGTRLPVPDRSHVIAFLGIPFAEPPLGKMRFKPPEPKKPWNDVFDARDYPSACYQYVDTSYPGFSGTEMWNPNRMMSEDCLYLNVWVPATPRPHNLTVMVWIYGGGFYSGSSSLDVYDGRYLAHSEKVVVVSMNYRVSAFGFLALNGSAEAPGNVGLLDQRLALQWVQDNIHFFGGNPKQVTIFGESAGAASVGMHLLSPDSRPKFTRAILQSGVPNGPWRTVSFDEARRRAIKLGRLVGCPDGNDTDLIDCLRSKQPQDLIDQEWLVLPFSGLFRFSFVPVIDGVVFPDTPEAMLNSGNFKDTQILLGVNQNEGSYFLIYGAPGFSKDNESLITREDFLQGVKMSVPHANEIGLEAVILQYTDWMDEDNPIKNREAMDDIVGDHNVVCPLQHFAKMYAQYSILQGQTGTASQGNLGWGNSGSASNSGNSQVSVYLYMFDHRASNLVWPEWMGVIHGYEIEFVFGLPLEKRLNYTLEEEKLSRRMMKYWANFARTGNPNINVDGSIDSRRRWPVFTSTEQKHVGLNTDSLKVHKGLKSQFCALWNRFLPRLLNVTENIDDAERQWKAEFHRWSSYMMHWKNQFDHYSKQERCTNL
Method: (§6) Ellman’s protocol was followed to perform the anticholinesterasic activity. Briefly, the reaction was carried out in a final volume of 3 ml of a phosphate-buffered solution (0.1 M) at pH =8.0 containing (2.625 µl, 0.35 mM) of 5,5’-dithiobis-2-nitrobenzoic acid (DTNB), 40 µl 1% w/v Bovine Albumin Serum phosphate-buffered solution (BSA), (29 µl, 0.035 U/ml) of EeAChE or (60 µl, 0.05 U/ml) of eqBuChE, and 3 µl of tested compound, which were incubated for 10 min. Then, the acetylthiocholine iodide or butyrylthiocholine was added, and the reaction was incubated for additional 15 min. The activity in absence of compound was used as control.

[9] = biological target: T1, eqBuChE (Equus caballus, UniProt P81908); assay: biochemical; details: at 10 μM; Table 2 footnote b
T1 construct: serum horse BuChE (eqBuChE); from tissue; host or cells: horse serum
T1 sequence (P81908 whole entry): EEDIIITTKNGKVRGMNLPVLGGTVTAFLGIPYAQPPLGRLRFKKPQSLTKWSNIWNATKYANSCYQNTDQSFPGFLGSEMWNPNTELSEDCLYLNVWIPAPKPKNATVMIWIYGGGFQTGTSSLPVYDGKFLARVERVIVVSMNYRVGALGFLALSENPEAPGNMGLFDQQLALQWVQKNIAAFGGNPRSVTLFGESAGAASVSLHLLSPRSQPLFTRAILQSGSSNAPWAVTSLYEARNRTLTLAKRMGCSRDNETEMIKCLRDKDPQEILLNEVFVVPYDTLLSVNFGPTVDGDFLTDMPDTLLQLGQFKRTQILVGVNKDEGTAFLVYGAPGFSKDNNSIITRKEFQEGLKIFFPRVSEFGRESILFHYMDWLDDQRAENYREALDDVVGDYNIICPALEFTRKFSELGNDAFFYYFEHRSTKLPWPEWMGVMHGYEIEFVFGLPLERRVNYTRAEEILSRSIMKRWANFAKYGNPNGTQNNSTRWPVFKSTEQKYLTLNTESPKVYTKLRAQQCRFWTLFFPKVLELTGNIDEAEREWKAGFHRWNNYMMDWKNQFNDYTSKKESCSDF
Method: as §6

[10] = biological target: T2, hAChE (Homo sapiens, UniProt P22303); assay: biochemical; details: mean ± SEM
T2 construct: 10 µl of cholinesterase obtained from human erythrocyte hemolyzate, out of blood samples; from tissue; host or cells: human erythrocyte hemolysate from blood samples
T2 sequence (P22303 32-617 isoform P22303-2 limits assumed): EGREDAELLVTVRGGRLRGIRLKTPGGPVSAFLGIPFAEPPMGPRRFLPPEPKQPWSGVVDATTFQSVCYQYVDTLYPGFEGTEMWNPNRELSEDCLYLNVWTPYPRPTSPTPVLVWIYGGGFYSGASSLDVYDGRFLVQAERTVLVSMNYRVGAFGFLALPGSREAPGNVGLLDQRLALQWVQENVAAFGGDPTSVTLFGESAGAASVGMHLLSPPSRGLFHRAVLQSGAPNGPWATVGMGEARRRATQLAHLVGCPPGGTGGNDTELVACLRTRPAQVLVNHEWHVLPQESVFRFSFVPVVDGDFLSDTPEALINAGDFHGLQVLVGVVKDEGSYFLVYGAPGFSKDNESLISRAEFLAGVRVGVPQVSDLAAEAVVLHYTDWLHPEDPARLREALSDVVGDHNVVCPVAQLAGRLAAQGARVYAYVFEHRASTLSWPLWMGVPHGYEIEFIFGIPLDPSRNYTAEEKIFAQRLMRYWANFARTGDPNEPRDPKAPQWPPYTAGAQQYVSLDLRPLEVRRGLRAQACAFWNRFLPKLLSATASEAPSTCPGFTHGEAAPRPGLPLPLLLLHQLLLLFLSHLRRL
Method: This blend was preincubated for 5 min and 20 µl of 0.01 M substrate (ATCh or BTCh) was added to initiate the reaction. […] The IC50 values are expressed as a mean ± SEM.
Next, as planned at the beginning of the project, the analysis of the antioxidant capacity of KT 2a–d, 2f–h, and 2l was carried out.

[11] = system: SH-SY5Y cells; assay: Toxicity of compounds on SH-SY5Y cells (MTT); format: cell-based; details: at 10 µM
Method: as §1

O=c1cc(CO)occ1O [KA, kojic acid, reference compound]
ORAC [1]: 2.51 TE and 2.51 ± 0.17 TE | O/R (%) neuroprotection ([2]; compound 3 µM): np | Aβ1–40 (%) neuroprotection ([3]; compound 3 µM): 65.11 ± 0.20 % | O/R (%) neuroprotection [4]: np | Aβ1–40 (%) neuroprotection [5]: 51.56 ± 0.18 %

COc1cccc(C2c3oc(CO)cc(=O)c3Oc3nc4c(c(N)c32)CCCC4)c1 (centres unmarked) [KT2d, 11-amino-2-(hydroxymethyl)-12-(3-methoxyphenyl)-7,9,10,12-tetrahydropyrano [2',3':5,6] pyrano[2,3-b]quinolin-4(8H)-one]
viability at 1 µM ([6]; 1 µM): 101 ± 2.5% | viability at 3 µM ([6]; 3 µM): 98 ± 4.1% | viability at 10 µM ([6]; 10 µM): 102 ± 3.2% | viability at 30 µM ([6]; 30 µM): 102 ± 1.8% | viability at 100 µM ([6]; 100 µM): 99 ± 1.1% | viability at 300 µM ([6]; 300 µM): 87.2 ± 6.1% | viability at 1000 µM ([6]; 1000 µM): 65.5 ± 1.3% | fold less toxic than tacrine (HepG2) [7]: six-fold less-hepatotoxic than tacrine | IC50 ([8]; mean ± SEM): 0.64 ± 0.06 µM | fold less active than tacrine (EeAChE) ([8]; ratio of IC50 values vs tacrine): approximately 20 fold | inhibition at 10 µM [9]: < 50% | IC50 [10]: 4.52 ± 0.24 µM | ORAC [1]: 4.79 TE | ORAC ([1]; listed as 2d): 4.79±0.39 TE | fold more potent than FA (ORAC) ([1]; vs ferulic acid): 1.3 fold | O/R (%) neuroprotection ([2]; compound 3 µM): 24.35 ± 0.05 % | O/R (%) neuroprotection ([2]; compound 10 µM): 12.53 ± 0.09% | neuroprotection against Aβ 1–40 ([3]; at 3 µM and 10 µM): significant and similar neuroprotection | Aβ1–40 (%) neuroprotection ([3]; compound 3 µM): 42.92 ± 0.20 % | Aβ1–40 (%) neuroprotection ([3]; compound 10 µM): 41.19 ± 0.18 % | toxicity for SH-SY5Y cells [11]: nontoxic
